Assay results reported in patent US12357598B2, “Treatment of neurodevelopmental disorders” (THE REGENTS OF THE UNIVERSITY OF CALIFORNIA, priority 2018, dated 2025).

Assays:
Assay type in all cases: in vivo, mouse
[1] = tested on: ddY mice; test: Short-chain fatty acids in fecal samples after maternal glyphosate exposure; details: offspring after maternal glyphosate exposure
Procedure: Measurement of short-chain fatty acids—acetic acid, propionic acid, butyric acid, and valeric acid—in fecal samples was performed by the TechnoSuruga Laboratory, Co., Ltd. (Shizuoka, Japan).

[2] = tested on: ddY mice; test: NORT, offspring after maternal glyphosate exposure; details: juvenile offspring, maternal 0.095% glyphosate
Procedure: Novel Object Recognition Test (NORT): Mice were habituated for 10 minutes in the test box for 3 straight days. At 4th day, two objects (differing in shape and color but of similar size) were placed in the box 35.5 cm apart (symmetrically), and each animal was allowed to explore in the box for 5 minutes. The animals were considered to be exploring the object when the head of the animal was both facing and within 2.54 cm of the object or when any part of the body, except for the tail was touching the object. The time that mice spent exploring each object was recorded. After training, mice were immediately returned to their home cages, and the box and objects were cleaned with 75% ethanol, to avoid any possible instinctive odorant cues. Retention tests were carried out at one-day intervals, following the respective training. During the retention test, each mouse was reintroduced into their original test box, and one of the training objects was replaced by a novel object. The mice were then allowed to explore freely for 5 minutes, and the time spent exploring each object was recorded. Throughout the experiments, the objects were counter-balanced, in terms of their physical complexity and emotional neutrality. […]

[3] = tested on: gut microbiota; test: 16S rRNA analysis of fecal samples after maternal glyphosate exposure; details: juvenile offspring (P28)
Procedure: 16S rRNA analysis and measurement of short-chain fluty acids of fecal samples. On P28, we collected fresh fecal samples from each mouse at around 10:00 in order to avoid circadian effects on the microbiome. The fecal samples were put into a sterilized screw cap microtube immediately after defecation, and these samples were stored at −80° C. until use. DNA extraction from mouse feces and 16S rRNA analysis of fecal samples were performed by MyMetagenome Co, Ltd. (Tokyo, Japan), as reported previously (20,21).

[4] = tested on: ddY mice; test: Three-chamber social interaction test, offspring after maternal glyphosate exposure; details: juvenile offspring, maternal 0.095% glyphosate vs water treated group
Procedure: (§1) Treatment of TPPU. TPPU was dissolved in polyethylene glycol 400 (PEG 400: Tokyo Chemical Industry Co., Ltd, Tokyo, Japan). TPPU (3 mg/kg/day) or vehicle (5 ml/kg, PEG 400) was administered orally in the pregnant mice from E5 to P21. Behavioral tests of offspring were performed during juvenile stage (P28-P35) after maternal glyphosate exposure (FIG. 1A).
Three-chamber Social Interaction Test: The three-chamber social interaction test was performed to investigate sociability and preference for social novelty in mice, as reported previously (7). The apparatus consisted of a rectangular, three-chambered box and a lid with a video camera (BrainScience Idea, Co., Ltd, Osaka, Japan). Each chamber (20 cm×40 cm×20 cm) was divided by a clear plastic wall with a small square opening (5 cm×8 cm). First, each subject mouse was placed in the box and allowed to explore for 10 min to habituate the environment. During the session, an empty wire cage (10 cm in diameter, 17.5 cm in height, with vertical bars 0.3 cm apart) was located in the center of left and right chamber. Next, an unfamiliar ddY male mouse (stranger 1) that had no prior contact with the subject mouse was put into a wire cage that was placed into one of the side chambers. […] The time spent in each chamber and the time spent around each cage was recorded on video.

[5] = tested on: pregnant ddY mice; test: General data (mortality, body weight, behavioral abnormality) of mothers and offspring after maternal glyphosate exposure; details: for Behavioral abnormality: juvenile offspring
Procedure: Treatment of glyphosate in drinking water into pregnant mice. Previous studies used drinking water containing 0.38% glyphosate (1% Roundup®) during pregnancy and lactation, equivalent to 50 mg/kg/day of glyphosate (1,2). This does correspond with 1/20 of the glyphosate no-observed-adverse-effect level, as described previously (3). Therefore, water or glyphosate [or 0.1, 0.25, 0.50, 0.75, 1.0% Roundup®, Nissan Chemical Corporation, Tokyo, Japan] were given to the pregnant mice from E5 to P21 (weaning). The male offspring were separated from their mothers at weaning (P21), and mice were caged each three-five in the groups in clear polycarbonate cage (22.5×33.8×14.0 cm). Mice were housed under controlled temperatures and 12 hour light/dark cycles (lights on between 07:00-19:00 h), with ad libitum food and water.
as §1

[6] = tested on: Ephx2 mRNA; test: Quantitative RT-PCR of Ephx2 mRNA after maternal glyphosate exposure; details: juvenile offspring (P28) after maternal glyphosate exposure vs water
Excerpt: Gene expression analysis by quantitative real-time PCR. At juvenile (P28) stage, mice were sacrificed, and their brains were removed for measurement of gene expression of Ephx2 mRNA. Brain regions such as PFC, hippocampus, and striatum were dissected from brain on ice. A quantitative RT-PCR system (Step One Plus, Thermo Fisher Scientific, Yokohama, Japan) was used to measure mRNAs. The specific mRNA transcripts were quantified by TaqManGene Expression assays (Thermo Fisher Scientific, Yokohama, Japan). Expression levels of Ephx2 (Mm01313813_m1) was measured in brain tissue. Total RNA was extracted by use of an RNeasy Mini Kit (Qiagen, Hilden, Germany). The purity of total RNA was assessed by Biophotometer plus (Eppendorf, Hamburg, Germany). The RNA samples were used in the first strand cDNA synthesis with High Capacity cDNA Reverse Transcription Kit (#4368813 Thermo Fisher Scientific, Yokohama, Japan). All samples were tested in triplicate and average values were used for quantification. The average values were normalized to Vic-labeled Actb mRNA (Cat #4352341E: pre-developed TaqMan Assay Reagents, Thermo Fisher Scientific, Yokohama, Japan).

[7] = 0.038% glyphosate (0.1% Roundup)
[8] = 0.095% glyphosate (0.25% Roundup)
[9] = 0.19% glyphosate (0.50% Roundup)
[10] = 0.285% glyphosate (0.75% Roundup)

SMILES: O=C(O)CNCP(=O)(O)O [glyphosate]
- levels of acetic acid in the fecal samples [1]: significantly increased
- propionic acid, butyric acid, and valeric acid in fecal samples [1]: not different
- novel object recognition test (NORT) [2]: cognitive deficits
- composition of gut microbiota ([3]; maternal glyphosate exposure): abnormal composition
- relative abundance of Clostridium sp. Clone-1, Enterorhabdus muris, Clostridium sp. Clone-46, and Butyricimonas virosa ([3]; vs water-treated group): significantly higher
- relative abundance of Eubacterium plexicaudatum, Lachnospiraceae bacterium 538, and Clostridium tertium ([3]; vs water-treated group): significantly lower
- three-chamber social interaction test [4]: social interaction deficits
- Alive number of offspring on P21 [5, 7]: 33
- Maternal mortality [5, 7]: 0%
- Number of offspring born [5, 7]: 33
- Offspring mortality [5, 7]: 0%
- Alive number of mothers on P0 ([5]; 0.038% glyphosate (0.1% Roundup), 3 mothers used): 3
- Alive number of offspring on P21 [5, 8]: 24
- Maternal mortality [5, 8]: 0%
- Number of offspring born [5, 8]: 30
- Offspring mortality [5, 8]: 20%
- Alive number of mothers on P0 ([5]; 0.095% glyphosate (0.25% Roundup), 3 mothers used): 3
- body weight of mothers at E17 ([5]; 0.095% glyphosate vs water exposure mothers): significantly lower
- Alive number of offspring on P21 [5, 9]: 2
- Maternal mortality [5, 9]: 20%
- Number of offspring born [5, 9]: 43
- Offspring mortality [5, 9]: 95.3%
- Alive number of mothers on P0 ([5]; 0.19% glyphosate (0.50% Roundup), 5 mothers used): 4
- Alive number of offspring on P21 [5, 10]: 4
- Maternal mortality [5, 10]: 25%
- Number of offspring born [5, 10]: 32
- Offspring mortality [5, 10]: 87.5%
- Alive number of mothers on P0 ([5]; 0.285% glyphosate (0.75% Roundup), 4 mothers used): 3
- Alive number of offspring on P21 ([5]; 0.38% glyphosate (1% Roundup)): 0
- Number of offspring born ([5]; 0.38% glyphosate (1% Roundup)): 0
- Maternal mortality ([5]; 0.38% glyphosate (1% Roundup) in drinking water from E5): 100%
- Alive number of mothers on P0 ([5]; 0.38% glyphosate (1% Roundup) in drinking water from E5, 4 mothers used): 0
- body weight of pregnant mice ([5]; glyphosate 0.038%-0.285%): increased gradually
- body weight of pregnant mice ([5]; high concentration (0.38%) glyphosate): not increased
- Behavioral abnormality ([5]; 0.038% glyphosate (0.1% Roundup), locomotion, three chamber test, forced swimming test): did not show any behavioral abnormality
- Behavioral abnormality [5, 8]: observed
- gene expression of sEH (or Ephx2) mRNA in the PFC, hippocampus, and striatum [6]: significantly higher
